According to US5235061A, “Fungicidal (1H-1,2,4-triazolyl)disilaalkanes” (priority 1991, dated 1993):
Several values for one entry are separate records, joined by “and”; a condition that tells them apart may be missing. Equal entries are not always repeated.

What was measured:
Assay in all cases: In vitro percent disease control (radii of spore growth on agar)
Format in all cases: cell-based
Alternaria mali = details: for inhibition of growth at 50 ppm / inhibition of growth at 100 ppm: Alternaria mali, read-out: % controlled, Al.
Description: (§1) The compounds of this invention were dissolved respectively in acetone in an amount equal to 10% of the final volume and then in purified water at the concentration of 100 ppm and 50 ppm.
(§2) Each of the solution was mixed with potato-sucrose-agar medium in a 6" petri dish and one of the fungi was spotted at the center of the dish. The dish was incubated in growth room for several days. The percent disease control was derived from the radii of spore growth. The screening tests in vitro condition are well-known to those skilled in the art.
(§3) The following fungi were used for the screening.

Rhizopus sp. = details: for inhibition of growth at 50 ppm / inhibition of growth at 100 ppm: Rhizopus, read-out: % controlled, Rhi. sp.
Description: as §1, §2, §3

Glomerella cingulata = details: for inhibition of growth at 50 ppm / inhibition of growth at 100 ppm: Colletotrichum gloeosporioides, read-out: % controlled, Glo.
Description: as §1, §2, §3
5) Glo.; Glomerella cingulata

[1] = system: Botryosphaeria dothidea Macrophoma sp.; details: for inhibition of growth at 50 ppm / inhibition of growth at 100 ppm: Botryosphaeria dothidea, read-out: % controlled, Bo.do (Ma.)
Description: as §1, §2, §3
4) Bo.do(Ma); Botryosphaeria dothidea Macrophoma sp.

Physalospora baccae = details: for inhibition of growth at 50 ppm / inhibition of growth at 100 ppm: read-out: % controlled, Phy ba.
Description: as §1, §2, §3
3) Phy. ba.; Physalospora baccae

Fusarium moniliforme = system: Fusarium moniliforme
Description: as §1, §2, §3
8) Fu.mo.; Fusarium moniliforme

Rhizoctonia solani = details: for inhibition of growth at 50 ppm / inhibition of growth at 100 ppm: Rhizoctonia solani, read-out: % controlled, Rhy. so.
Description: as §1, §2, §3
7) Rhi.so.; Rhizoctonia solani

Phytophthora capsisi = details: Phytophthora, read-out: % controlled, Phy ca.
Description: as §1, §2, §3
2) Phy. ca.; Phytophthora capsisi

Pyricalaria oryzae = details: for inhibition of growth at 50 ppm: read-out: % controlled, Py. or., 50 ppm; for inhibition of growth at 100 ppm: read-out: % controlled, Py. or., 100 ppm
Description: as §1, §2, §3
6) Py.or.; Pyricalaria oryzae

Botry tris cinerea = details: for inhibition of growth at 50 ppm / inhibition of growth at 100 ppm: read-out: % controlled, Bo ci.
Description: as §1, §2, §3
10) Bo.ci.; Botry tris cinerea

Compound	inhibition of growth at 50 ppm (Alternaria mali; 50 ppm) [%]	inhibition of growth at 100 ppm (Alternaria mali; 100 ppm) [%]	inhibition of growth at 50 ppm (Rhizopus sp.; 50 ppm) [%]	inhibition of growth at 100 ppm (Rhizopus sp.; 100 ppm) [%]	inhibition of growth at 50 ppm (Glomerella cingulata; 50 ppm) [%]	inhibition of growth at 100 ppm (Glomerella cingulata; 100 ppm) [%]	inhibition of growth at 50 ppm ([1]; 50 ppm) [%]	inhibition of growth at 100 ppm ([1]; 100 ppm) [%]	inhibition of growth at 50 ppm (Physalospora baccae; 50 ppm) [%]	inhibition of growth at 100 ppm (Physalospora baccae; 100 ppm) [%]	% controlled, Fu. mo. (Fusarium moniliforme; 50 ppm)	% controlled, Fu. mo. (Fusarium moniliforme; 100 ppm)	inhibition of growth at 50 ppm (Rhizoctonia solani; 50 ppm) [%]	inhibition of growth at 100 ppm (Rhizoctonia solani; 100 ppm) [%]	inhibition of growth at 50 ppm (Phytophthora capsisi) [%]	inhibition of growth at 100 ppm (Phytophthora capsisi) [%]	inhibition of growth at 50 ppm (Pyricalaria oryzae) [%]	inhibition of growth at 100 ppm (Pyricalaria oryzae) [%]	inhibition of growth at 50 ppm (Botry tris cinerea; 50 ppm) [%]	inhibition of growth at 100 ppm (Botry tris cinerea; 100 ppm) [%]	other results
C=CC[Si](Cn1cncn1)(C[Si](CC=C)(c1ccc(F)cc1)c1ccc(-c2ccccc2)cc1)c1ccc(F)cc1 (stereo not drawn) [4,6-(4-fluorophenyl)-6-(4-phenylphenyl)-4,6-disila-4-(1H-1,2,4-triazol-1-ylmethyl)-1,8-nonadiene]	62	65	56	56	85	87	79	79	60	65	40%	46%	90	96	75	75	100	100	–	–	–
C[Si](C)(C[Si](C)(Cn1cncn1)c1ccc(F)cc1)c1ccc(-c2ccccc2)cc1 (stereo not drawn) [2-(4-fluorophenyl)-4-(4-phenylphenyl)2,4-dimethyl-2,4-disila-1-(1H-1,2,4-triazol-1-yl)pentane]	75	79	50	50	87	87	79	79	69	69	46%	46%	96	96	–	–	100	100	90	90	–
C=CC[Si](C[Si](C)(Cn1cncn1)c1ccc(F)cc1)(c1ccccc1)c1ccc(-c2ccccc2)cc1 (stereo not drawn)	78	100	100	100	100	100	100	100	100	100	100%	100%	–	–	27	50	85	100	86	100	–
C=CC[Si](CC=C)(Cn1cncn1)C[Si](CC=C)(CC=C)c1ccccc1 [6-phenyl-4,6-bis(2-propenyl)-4,6-disila-4-(1H-1,2,4-triazol-1-ylmethyl)-1,8-nonadiene]	75	79	50	50	70	87	65	70	60	69	46%	46%	–	–	60	70	60	90	80	96	–
C[Si](C)(C[Si](Cn1cncn1)(c1ccc(F)cc1)c1ccc(-c2ccccc2)cc1)c1ccc(F)cc1 (stereo not drawn) [2,4-bis(4-fluorophenyl)-2-(4-phenylphenyl)-4-methyl-2,4-disila-1-(1H-1,2,4-triazol-1-yl)pentane]	–	–	–	–	87	87	–	–	–	–	46% and 41%	46% and 45%	–	–	12	14	–	–	–	–	% controlled, Bo ci. (Botry tris cinerea; 100 ppm): 90% and 47%; % controlled, Al. (Alternaria mali; 50 ppm): 75% and 38%; % controlled, Al. (Alternaria mali; 100 ppm): 79% and 46%; % controlled, Glo. (Glomerella cingulata; 50 ppm): 76%; % controlled, Glo. (Glomerella cingulata; 100 ppm): 78%; % controlled, Bo.do (Ma.) ([1]; 50 ppm): 79% and 43%; % controlled, Bo.do (Ma.) ([1]; 100 ppm): 79% and 51%; % controlled, Py. or. (Pyricalaria oryzae; 50 ppm): 100% and 50%; % controlled, Py. or. (Pyricalaria oryzae; 100 ppm): 100% and 50%
C[Si](C)(C)C[Si](Cn1cncn1)(c1ccc(F)cc1)c1ccc(F)cc1 [2,2-bis(4-fluorophenyl)-4,4-dimethyl-2,4-disila-1-(1H-1,2,4-triazol-1-yl)pentane]	32	35	24	29	60	67	31	37	20	24	31%	34%	60	67	6	6	57	61	–	–	–
2-(4-chlorophenyl)-2-(4-fluorophenyl)-2,4-dimethyl-1-(1H-1,2,4-triazol-1-yl)pentane	–	–	–	–	–	–	–	–	–	–	46%	46%	–	–	–	–	–	–	–	–	% controlled, Bo ci. (Botry tris cinerea; 50 ppm): 90%; % controlled, Bo ci. (Botry tris cinerea; 100 ppm): 90%; % controlled, Al. (Alternaria mali; 50 ppm): 75%; % controlled, Al. (Alternaria mali; 100 ppm): 79%; % controlled, Rhi. sp. (Rhizopus sp.; 50 ppm): 50%; % controlled, Rhi. sp. (Rhizopus sp.; 100 ppm): 50%; % controlled, Glo. (Glomerella cingulata; 50 ppm): 87%; % controlled, Glo. (Glomerella cingulata; 100 ppm): 87%; % controlled, Bo.do (Ma.) ([1]; 50 ppm): 79%; % controlled, Bo.do (Ma.) ([1]; 100 ppm): 79%; % controlled, Phy ba. (Physalospora baccae; 50 ppm): 69%; % controlled, Phy ba. (Physalospora baccae; 100 ppm): 69%; % controlled, Rhy. so. (Rhizoctonia solani; 50 ppm): 96%; % controlled, Rhy. so. (Rhizoctonia solani; 100 ppm): 96%; % controlled, Py. or. (Pyricalaria oryzae; 50 ppm): 100%; % controlled, Py. or. (Pyricalaria oryzae; 100 ppm): 100%
C=CC[Si](C)(Cn1cncn1)C[Si](CC=C)(c1ccc(OCC)cc1)c1ccc(OCC)cc1 (stereo not drawn) [6,6-bis(4-ethoxyphenyl)-4-methyl-4,6-disila-4-(1H-1,2,4-triazol-1-ylmethyl)-1,8-nonadiene]	100	100	80	80	100	100	70	72	–	–	100%	100%	100	100	55	60	100	100	100	100	–
